T/C data for 21 compounds are collected here from PubChem BioAssay AID330 (DTP/NCI, 2004).

Several values for one entry are separate records, joined by “and”; a condition that tells them apart may be missing. Equal entries are not always repeated. Toxic doses and inconclusive results are not listed.

The subject of this test is P388 leukemia ip, CD2F1 mice, survival T/C. The test can be described thus: NCI In Vivo Anticancer Drug Screen. Data for tumor model P388 Leukemia (intraperitoneal) in CD2F1 (CDF1) mice. As to conditions: endpoint: median survival time, higher = longer survival. A digest of the protocol: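 Mice carrying the transplanted tumor received test compound or vehicle. Survival was recorded in each group, and the value is the treated-group measurement divided by that of the vehicle-treated control group.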

Setting [1] is: dose: 25.0 mg/kg/injection, schedule: Q01DX009 (ip), vehicle: Klucel (hydroxypropylcellulose) (HPC).
The mark [2] stands for this setting: dose: 50.0 mg/kg/injection, schedule: Q01DX009 (ip), vehicle: Klucel (hydroxypropylcellulose) (HPC).
Setting [3] is: dose: 100.0 mg/kg/injection, schedule: Q01DX009 (ip), vehicle: Klucel (hydroxypropylcellulose) (HPC).
Where [4] appears, read: dose: 50.0 mg/kg/injection, schedule: Q01DX005 (ip), vehicle: Klucel (hydroxypropylcellulose) (HPC).
Where [5] appears, read: dose: 100.0 mg/kg/injection, schedule: Q01DX005 (ip), vehicle: Klucel (hydroxypropylcellulose) (HPC).
Where [6] appears, read: dose: 200.0 mg/kg/injection, schedule: Q01DX005 (ip), vehicle: Klucel (hydroxypropylcellulose) (HPC).
Where [7] appears, read: dose: 33.0 mg/kg/injection, schedule: Q04DX003 (ip), vehicle: saline with Tween-80.
[8] abbreviates: dose: 50.0 mg/kg/injection, schedule: Q04DX003 (ip), vehicle: saline with Tween-80.
Where [9] appears, read: dose: 75.0 mg/kg/injection, schedule: Q04DX003 (ip), vehicle: saline with Tween-80.
The mark [10] stands for this setting: dose: 50.0 mg/kg/injection, schedule: Q01DX005 (ip), vehicle: saline with Tween-80.
[11] abbreviates: dose: 50.0 mg/kg/injection, schedule: Q01DX009 (ip), vehicle: saline with Tween-80.

As for `COc1c(C(C)C)cc2c(c1OC)C13CCCC(C)(C)C1C(OC3=O)C2NC(=O)CN1CCN(CCO)CC1` (stereo not drawn), the T/C runs as follows: under setting [1], 106 % of control; under setting [2], 97 % of control; under setting [3], 88 % of control.

With `Fc1ccccc1C(Nc1nc2ccccc2s1)Nc1nc2ccccc2s1`, the T/C is 109 % of control under setting [4], 104 % of control under setting [5] and 113 % of control under setting [6].

As to `O=C(O)CN=C1C=CC(=NCC(=O)O)C=C1`, the T/C under setting [4] is 109 % of control and the T/C under setting [5] was 108 % of control.

Regarding `CCCCn1cnc2c(SC)ncnc21`, the T/C by setting is: (dose: 22.0 mg/kg/injection, schedule: Q04DX003 (ip), vehicle: saline with Tween-80) 110 % of control; under setting [7], 110 % of control; under setting [8], 115 % of control; under setting [9], 110 % of control.

In the case of `C[C@@]12CCC[C@@H]1OC(=O)C2`, the T/C under setting [10] was 98 % of control.

For the compound `CN(C)c1c(-c2ccc(Cl)cc2)cc(-c2ccccc2)[nH]c1=O`, the T/C was 101 % of control (dose: 1.56 mg/kg/injection, schedule: Q01DX009 (ip), vehicle: Klucel (hydroxypropylcellulose) (HPC)); 101 % of control (dose: 3.13 mg/kg/injection, schedule: Q01DX009 (ip), vehicle: Klucel (hydroxypropylcellulose) (HPC)); 100 % of control (dose: 6.25 mg/kg/injection, schedule: Q01DX009 (ip), vehicle: Klucel (hydroxypropylcellulose) (HPC)); 99 % of control and 89 % of control (dose: 12.5 mg/kg/injection, schedule: Q01DX009 (ip), vehicle: Klucel (hydroxypropylcellulose) (HPC)); 101 % of control under setting [2]; 106 % of control under setting [3].

For `CN(C)c1nnn(Cc2ccccc2)n1`, the T/C is 101 % of control under setting [4], 97 % of control under setting [5] and 104 % of control under setting [6].

In the case of `Cc1ccc([C@H]2N[C@@H]2c2ccccn2)cc1`, the T/C runs as follows: (dose: 60.0 mg/kg/injection, schedule: Q01DX005 (ip), vehicle: saline with Tween-80) 98 % of control; (dose: 120.0 mg/kg/injection, schedule: Q01DX005 (ip), vehicle: saline with Tween-80) 103 % of control.

As to `CC1=C(c2ccccc2)OC(c2ccccc2)=C[P+]1(c1ccccc1)c1ccccc1`, the T/C was 105 % of control (dose: 1.56 mg/kg/injection, schedule: Q01DX005 (ip), vehicle: saline) and 110 % of control (dose: 3.12 mg/kg/injection, schedule: Q01DX005 (ip), vehicle: saline).

`[CH3][Ge]1([CH3])[CH]=CC(O)[CH2]1` (stereo not drawn): the T/C runs as follows: (dose: 50.0 mg/kg/injection, schedule: Q01DX005 (ip), vehicle: saline) 98 % of control; (dose: 100.0 mg/kg/injection, schedule: Q01DX005 (ip), vehicle: saline) 100 % of control; (dose: 200.0 mg/kg/injection, schedule: Q01DX005 (ip), vehicle: saline) 100 % of control.

Turning to `CC(=O)OCC1OC(OC2C(COC(C)=O)OC(Sc3ccccc3)C(OC(C)=O)C2OC(C)=O)C(OC(C)=O)C(OC(C)=O)C1OC(C)=O` (stereo not drawn), the T/C is 100 % of control under setting [4]; 100 % of control under setting [5]; 94 % of control (dose: 100.0 mg/kg/injection, schedule: Q04DX002 (ip), vehicle: Klucel (hydroxypropylcellulose) (HPC)); 109 % of control under setting [6]; 91 % of control (dose: 200.0 mg/kg/injection, schedule: Q04DX002 (ip), vehicle: Klucel (hydroxypropylcellulose) (HPC)).

Take `OCC(CO)c1ccccc1`: the T/C (dose: 37.5 mg/kg/injection, schedule: Q04DX003 (ip), vehicle: saline) is 97 % of control; the T/C (dose: 75.0 mg/kg/injection, schedule: Q04DX003 (ip), vehicle: saline) is 100 % of control; the T/C (dose: 150.0 mg/kg/injection, schedule: Q04DX003 (ip), vehicle: saline) is 100 % of control.

Regarding `CCCCC(=O)N/N=C(\C)[C@]1(O)Cc2c(O)c3c(c(O)c2[C@@H](OC2CC(N)C(O)C(C)O2)C1)C(=O)c1c(OC)cccc1C3=O` (stereo partly drawn), the T/C reads like this: (dose: 0.12 mg/kg/injection, schedule: Q01DX009 (ip), vehicle: water) 117 % of control; (dose: 0.25 mg/kg/injection, schedule: Q01DX009 (ip), vehicle: water) 122 % of control; (dose: 0.5 mg/kg/injection, schedule: Q01DX009 (ip), vehicle: water) 155 % of control; (dose: 1.0 mg/kg/injection, schedule: Q01DX009 (ip), vehicle: water) 190 % of control; (dose: 2.0 mg/kg/injection, schedule: Q01DX009 (ip), vehicle: water) 180 % of control and 190 % of control; (dose: 4.0 mg/kg/injection, schedule: Q01DX009 (ip), vehicle: water) 195 % of control and 238 % of control. The T/C (dose: 8.0 mg/kg/injection, schedule: Q01DX009 (ip), vehicle: water) was 152 % of control and 247 % of control.

`CCCCN(CCCC)C1/C(=N\O)C2CC1C1CC=CC21` (stereo not drawn): the T/C was 95 % of control (dose: 60.0 mg/kg/injection, schedule: Q01DX005 (ip), vehicle: saline + Tween-80 + alcohol); 94 % of control (dose: 120.0 mg/kg/injection, schedule: Q01DX005 (ip), vehicle: saline + Tween-80 + alcohol); 94 % of control (dose: 240.0 mg/kg/injection, schedule: Q01DX005 (ip), vehicle: saline + Tween-80 + alcohol).

Consider `Cc1ccc(C2(C)C(=O)c3ccccc3C2=O)cc1`, for which the T/C reads like this: (dose: 100.0 mg/kg/injection, schedule: Q04DX002 (ip), vehicle: saline) 101 % of control; (dose: 200.0 mg/kg/injection, schedule: Q04DX002 (ip), vehicle: saline) 100 % of control; (dose: 400.0 mg/kg/injection, schedule: Q04DX002 (ip), vehicle: saline) 107 % of control.

For `Cn1c(=O)c2c(nc(Br)n2C)n(C)c1=O`, the T/C runs as follows: under setting [1], 94 % of control; under setting [2], 109 % of control.

In the case of `CCCCNCCCNCCCNC(=O)c1csc(-c2csc(CCNC(=O)C(NC(=O)C(C)C(O)C(C)NC(=O)C(NC(=O)c3nc(C(CC(N)=O)NCC(N)C(N)=O)nc(N)c3C)C(OC3OC(CO)C(O)C(O)C3OC3OC(CO)C(O)C(OC(N)=O)C3O)c3cnc[nH]3)C(C)O)n2)n1` (stereo not drawn), the T/C by setting is: (dose: 0.62 mg/kg/injection, schedule: Q01DX009 (ip), vehicle: water) 104 % of control and 105 % of control; (dose: 1.25 mg/kg/injection, schedule: Q01DX009 (ip), vehicle: water) 104 % of control and 105 % of control; (dose: 2.5 mg/kg/injection, schedule: Q01DX009 (ip), vehicle: water) 104 % of control and 110 % of control and 117 % of control; (dose: 5.0 mg/kg/injection, schedule: Q01DX009 (ip), vehicle: water) 108 % of control and 117 % of control and 120 % of control; (dose: 10.0 mg/kg/injection, schedule: Q01DX009 (ip), vehicle: water) 104 % of control; (dose: 20.0 mg/kg/injection, schedule: Q01DX009 (ip), vehicle: water) 105 % of control. For the same compound, the T/C (dose: 40.0 mg/kg/injection, schedule: Q01DX009 (ip), vehicle: water) is 89 % of control.

With `CCOC(=O)CC(=O)c1sc(Nc2ccccc2)c(C(N)=O)c1N`, the T/C is, setting by setting: under setting [10], 100 % of control; (dose: 100.0 mg/kg/injection, schedule: Q01DX005 (ip), vehicle: saline with Tween-80) 94 % of control; (dose: 200.0 mg/kg/injection, schedule: Q01DX005 (ip), vehicle: saline with Tween-80) 94 % of control.

`S=P(NCCNP(=S)(N1CC1)N1CC1)(N1CC1)N1CC1`: the T/C was 122 % of control (dose: 25.0 mg/kg/injection, schedule: Q04DX003 (ip), vehicle: saline with Tween-80); 165 % of control under setting [7]; 95 % of control under setting [11]; 170 % of control and 177 % of control under setting [8]; 90 % of control under setting [9]; 86 % of control (dose: 100.0 mg/kg/injection, schedule: Q04DX003 (ip), vehicle: saline with Tween-80).

Turning to `OCCCN(CCCO)CCN(CCCO)CCCO`, the T/C by setting is: (dose: 100.0 mg/kg/injection, schedule: Q04DX003 (ip), vehicle: saline) 97 % of control; (dose: 200.0 mg/kg/injection, schedule: Q04DX003 (ip), vehicle: saline) 97 % of control; (dose: 400.0 mg/kg/injection, schedule: Q04DX003 (ip), vehicle: saline) 87 % of control.

For `CCCCOCN(CCc1ccccc1)COCCCC`, the T/C under setting [11] was 118 % of control and the T/C (dose: 200.0 mg/kg/injection, schedule: Q01DX009 (ip), vehicle: saline with Tween-80) is 152 % of control.
